In assay [1] the target is recombinant 17bHSD13 (N2-K300) (Homo sapiens (Human), UniProt Q7Z5P4). As to the kind of experiment: In Vitro 17bHSD13 Enzyme Assay. It counts as biochemical. Particulars: 80 nM 17bHSD13, 0.5 mM NAD, 20 μM Estradiol, 2.5 h; estradiol to estrone by LC-MS/MS. On the procedure: In Vitro 17bHSD13 Enzyme Assay
The enzyme reaction was initiated by addition, using CERTUS-FLEX dispenser (GYGER), of 20 μl of substrate solution containing NAD (SIGMA, N1511) and Estradiol (SIGMA, E8875). […] Final assay conditions were 80 nM of 17bHSD13, 0.5 mM of NAD, 20 μM Estradiol and various concentrations of compound in buffer (5 mM EDTA (TEKNOVA E0306), 0.01% DDM (AFFYMETRIX D310) in 50 mM Tris-Cl, pH 7.4).
(§1) SCIEX LC-MS/MS system: Sample was injected with CTC analytical injector, SHIMATZU LC pumps LC20 and analyzed on the SCIEX API 5000 LCMSMS system with the following settings. […] The mobile phases consist of A (water with 0.2% formic acid) and B (acetonitrile with 0.2% formic acid). The LC gradient profile is as follows: 50% B during 0 to 0.5 min, a linear increase to 100% B during 0.5 to 1 min, hold at 100% B during 1 to 1.6 min then back to 50% B from 1.6 to 2 min. […] Detection was performed on a API 5000 LC/MS/MS system with a triple quadrupole mass spectrometer, a TURBO V ion source, in multiple reaction monitoring (MRM) mode at positive polarity with APCI probe. […] The dwell times were 100 ms for each transition and a depolarization and collision energy of 100 and 40, respectively. Data from MS signals was using area under curve (AUC). Ratio=Estrone/(Estrone+Estradiol)
(§2) […] […] was used for curve fitting and calculation of IC50 values.
(§3) Compound effect was calculated with the formula below;
(§4) where X represents the effect in the presence of test compound, min is DMSO and max is the maximum inhibition of enzyme using a known inhibitor as control.

For assay [2], the target named is over expressed HSD17β9 in HEK293S cells (Homo sapiens (Human), UniProt Q92781). As to the kind of experiment: In Vitro 17bHSD9 Cell Assay. The format is cell-based. The settings on record: HEK293S cells over expressing HSD17β9; retinol to retinal conversion, 18 h, LC-MS/MS; read-out: 17bHSD9 Cell assay IC50. As for the experimental part: In Vitro 17bHSD9 Cell Assay
Inhibition of 17bHSD9 was measured in a cell-based assay with over expressed HSD17β9 in HEK293S cells, measuring retinol to retinal conversion by LCMS/MS.
Cells were plated in 384 well plates (GREINER CELL culture plate 384w black/clear Poly-D-Lysine) at 10 K c/w in 30 μl of culture media (DMEM with GLUTAMAX plus 10% FBS). […] After 18 h of cell culturing for 20 μl of media was transferred using BRAVO dispensing robot (AGILENT) to a GREINER PP 384 well plate (781280) and 40 μl of 50% acetonitrile was added. Samples were analyzed using LC-MS/MS.
SCIEX LC-MS/MS system: Sample was injected with CTC analytical injector, SHIMATZU LC pumps LC20 and analysed on the SCIEX API 5000 LCMSMS system with the following settings. Samples were chromatographed on a WATERS, symmetry, C8, 3.5 μm, 2.1×50 mm) column at constant flow rate of 0.5 mL/min. The mobile phases consists of A (water with 0.2% formic acid) and B (acetonitrile with 0.2% formic acid). The LC gradient profile is as follows: 50% B during 0 to 0.1 min, a linear increase to 100% B during 0.1 to 0.8 min, hold at 100% B during 0.8 to 1.5 min then back to 50% B from 1.5 to 1.6 min and hold during run time. The run time was 2 min with retention times of approximately 1.54 and 1.62 min for Retinol and Retinal, respectively. Detection was performed on a API 5000 LC/MS/MS system with a triple quadrupole mass spectrometer, a TURBO V ion source, in multiple reaction monitoring (MRM) mode at positive polarity with ESI probe. The MRM pairs were m/z 269.3 to m/z 93.0 and m/z 285.2 to 161.0. for Retinol and Retinal, respectively. The dwell times were 100 ms for each transition and a depolarization and collision energy of 50 and 25, respectively. Data from MS signals was using area under curve (AUC). Ratio=Retinal/(Retinal+Retinol).
as §2, §3, §4

Assay [3] deals with over expressed HSD17β13 in HEK293S cells (Homo sapiens (Human), UniProt Q7Z5P4). As to the kind of experiment: In Vitro 17bHSD13 Cell Assay. The format is cell-based. Particulars: HEK293S cells over expressing HSD17β13; estradiol to estrone conversion, 18 h, LC-MS/MS; read-out: 17bHSD1713 Cell assay IC50. On the procedure:
In Vitro 17bHSD13 Cell Assay
Inhibition of 17bHSD13 was measured in a cell-based assay with over expressed HSD17β13 in HEK293S cells, measuring estradiol to estrone conversion by LCMS/MS.
Samples were analyzed using LC-MS/MS.
as §1, with “analysed” for “analyzed”
as §2, §3, §4

Drawing on US20250011311A1, “AMIDO HETEROAROMATIC COMPOUNDS” (AstraZeneca AB, priority 2022, published 2025), this text covers IC50 for 17 compounds.

over expressed HSD17β13 in HEK293S cells, sequence (Q7Z5P4 20-300): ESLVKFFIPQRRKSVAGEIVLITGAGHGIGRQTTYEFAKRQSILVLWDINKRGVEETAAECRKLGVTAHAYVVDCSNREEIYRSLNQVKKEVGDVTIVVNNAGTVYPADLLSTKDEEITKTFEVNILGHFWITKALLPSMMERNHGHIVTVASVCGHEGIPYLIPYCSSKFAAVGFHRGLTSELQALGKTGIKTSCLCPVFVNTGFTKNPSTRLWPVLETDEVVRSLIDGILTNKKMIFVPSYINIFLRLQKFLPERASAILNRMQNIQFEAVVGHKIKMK
over expressed HSD17β9 in HEK293S cells, sequence (Q92781 whole entry): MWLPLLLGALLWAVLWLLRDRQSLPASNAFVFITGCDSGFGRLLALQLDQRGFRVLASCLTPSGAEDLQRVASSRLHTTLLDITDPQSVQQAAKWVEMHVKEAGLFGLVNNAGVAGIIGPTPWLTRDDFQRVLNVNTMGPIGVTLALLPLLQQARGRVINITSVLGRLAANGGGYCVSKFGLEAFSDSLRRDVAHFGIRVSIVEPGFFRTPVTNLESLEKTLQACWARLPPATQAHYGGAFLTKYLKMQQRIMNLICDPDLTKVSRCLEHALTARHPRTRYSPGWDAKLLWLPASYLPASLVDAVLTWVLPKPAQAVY
recombinant 17bHSD13 (N2-K300), sequence (Q7Z5P4 2-300): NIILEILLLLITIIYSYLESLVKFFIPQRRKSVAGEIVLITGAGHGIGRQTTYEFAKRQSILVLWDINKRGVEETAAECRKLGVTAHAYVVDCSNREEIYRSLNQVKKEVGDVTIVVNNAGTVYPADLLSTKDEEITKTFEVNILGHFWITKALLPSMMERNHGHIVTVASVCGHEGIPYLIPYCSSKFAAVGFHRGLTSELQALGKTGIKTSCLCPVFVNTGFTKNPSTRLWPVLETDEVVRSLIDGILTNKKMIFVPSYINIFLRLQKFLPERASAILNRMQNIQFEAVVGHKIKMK

As a reminder, the IC50 is the point on the concentration scale where inhibition reaches its midpoint. With `COc1cccc(N2CCN(C(=O)c3noc(-c4cc(C(F)(F)F)[nH]c(=O)c4)n3)CC2)c1` [Example 10, 4-(3-(4-(3-Methoxyphenyl)piperazine-1-carbonyl)-1,2,4-oxadiazol-5-yl)-6-(trifluoromethyl)pyridin-2(1H)-one], the IC50 was 474 nM in assay [1], more than 50000 nM in assay [2] and 4140 nM in assay [3].
For `COc1cccc(N2CCN(C(=O)c3noc(-c4cc(F)c(F)c(O)c4F)n3)CC2)c1` [Example 61, (4-(3-Methoxyphenyl)piperazin-1-yl)(5-(2,4,5-trifluoro-3-hydroxyphenyl)-1,2,4-oxadiazol-3-yl)methanone] the same measures were 50 nM, more than 50000 nM and 730 nM.
For `Cc1ccc2[nH]c(CN(C)C(=O)c3noc(-c4cc(F)c(F)c(O)c4F)n3)nc2c1` [Example 73, N-Methyl-N-((5-methyl-1H-benzo[d]imidazol-2-yl)methyl)-5-(2,4,5-trifluoro-3-hydroxyphenyl)-1,2,4-oxadiazole-3-carboxamide] the same measures were 88 nM, more than 50000 nM and 21600 nM.
In the case of `N#Cc1c(C(=O)N2CC(C(F)(F)F)C2)noc1-c1cc(F)c(F)c(O)c1F` [Example 28, 5-(2,4,5-Trifluoro-3-hydroxyphenyl)-3-(3-(trifluoromethyl)azetidine-1-carbonyl)isoxazole-4-carbonitrile], the values for the IC50 in assay [1] and in assay [3] were 368 nM and 4130 nM, respectively.
In the same order, the values of `CN(C(=O)c1nnc(-c2ccc(F)c(O)c2)o1)c1nnnn1-c1ccccc1` [Example 91, 5-(4-Fluoro-3-hydroxyphenyl)-N-methyl-N-(1-phenyl-1H-tetrazol-5-yl)-1,3,4-oxadiazole-2-carboxamide] are 166 nM and more than 50000 nM.
In the same order, the values of `COc1ccc(N2CCN(C(=O)c3noc(-c4cc(F)c(F)c(O)c4F)n3)CC2)cc1` [Example 55, (4-(4-Methoxyphenyl)piperazin-1-yl)(5-(2,4,5-trifluoro-3-hydroxyphenyl)-1,2,4-oxadiazol-3-yl)methanone] are 112 nM and 960 nM.
For the compound `CN(C(=O)c1noc(-c2ccc(F)c(O)c2)n1)c1nnnn1-c1ccccc1` [Example 92, 5-(4-Fluoro-3-hydroxyphenyl)-N-methyl-N-(1-phenyl-1H-tetrazol-5-yl)-1,2,4-oxadiazole-3-carboxamide], the values for the IC50 in assay [1], in assay [2] and in assay [3] were 41 nM, more than 50000 nM and 1540 nM, respectively.
As to `O=C(NCc1ccnn1C1CCCCC1)c1cnc(-c2ccc(F)c(O)c2)o1` [Example 100, N-((1-Cyclohexyl-1H-pyrazol-5-yl)methyl)-2-(4-fluoro-3-hydroxyphenyl)oxazole-5-carboxamide], the figures for the IC50 in assay [1] and in assay [3] were 5340 nM and 18100 nM, respectively.
As to `O=C(c1noc(-c2cc(F)c(F)c(O)c2F)n1)N1CCC2(C1)OCc1ccccc12` (stereo not shown) [Example 102, (3H-Spiro[isobenzofuran-1,3′-pyrrolidin]-1′-yl)(5-(2,4,5-trifluoro-3-hydroxyphenyl)-1,2,4-oxadiazol-3-yl)methanone], the concentration for half-maximal inhibition (IC50) in assay [1] is 52 nM; in assay [2], more than 50000 nM; in assay [3] it was 700 nM.
Take `O=C(c1noc(-c2cc(F)c(F)c(O)c2F)n1)N1Cc2ccc(F)cc2C1` [Example 65, (5-Fluoroisoindolin-2-yl)(5-(2,4,5-trifluoro-3-hydroxyphenyl)-1,2,4-oxadiazol-3-yl)methanone]: the values for the concentration for half-maximal inhibition (IC50) in assay [1] and in assay [3] were 134 nM and 200 nM, respectively.
For `Cc1cccnc1CN(C(=O)c1noc(-c2cc(F)c(F)c(O)c2F)n1)C(C)C` [Example 75, N-Isopropyl-N-((3-methylpyridin-2-yl)methyl)-5-(2,4,5-trifluoro-3-hydroxyphenyl)-1,2,4-oxadiazole-3-carboxamide] the same measures were 268 nM and 5600 nM.
For `Cc1cc2nc(CN(C)C(=O)c3noc(-c4cc(F)c(F)c(O)c4F)n3)[nH]c2cc1C` [Example 71, N-((5,6-Dimethyl-1H-benzo[d]imidazol-2-yl)methyl)-N-methyl-5-(2,4,5-trifluoro-3-hydroxyphenyl)-1,2,4-oxadiazole-3-carboxamide] the same measures were 68 nM and 28400 nM.
On to `N#Cc1c(C(=O)N2CCC(n3cc(-c4ccc(F)cc4)[nH]c3=O)CC2)noc1-c1cc(F)c(F)c(O)c1F` [Example 24, 3-(4-(4-(4-Fluorophenyl)-2-oxo-2,3-dihydro-1H-imidazol-1-yl)piperidine-1-carbonyl)-5-(2,4,5-trifluoro-3-hydroxyphenyl)isoxazole-4-carbonitrile], for which the IC50 in assay [1] is 198 nM; in assay [3] it was 3500 nM.
As for `O=C(c1cc(-c2ccc(F)c(O)c2)on1)N1CC[C@H](c2ccccc2)C1` [Example 101, (R)-(5-(4-Fluoro-3-hydroxyphenyl)isoxazol-3-yl)(3-phenylpyrrolidin-1-yl)methanone], the IC50 in assay [1] was 50 nM; in assay [2] it was more than 50000 nM; in assay [3], 420 nM.
As to `CN(C)C(=O)C1CCCN1C(=O)c1ccc(-c2cc(F)c(F)c(O)c2F)s1` (stereo not shown) [Example 105, N,N-Dimethyl-1-(5-(2,4,5-trifluoro-3-hydroxyphenyl)thiophene-2-carbonyl)pyrrolidine-2-carboxamide], the results for the 50% inhibitory concentration (IC50) in assay [1] and in assay [3] were 3760 nM and 1260 nM, respectively.
In the case of `CN(C(=O)c1noc(-c2cc(F)c(F)c(O)c2F)n1)c1cccc(C#N)c1` [Example 63, N-(3-Cyanophenyl)-N-methyl-5-(2,4,5-trifluoro-3-hydroxyphenyl)-1,2,4-oxadiazole-3-carboxamide], in assay [3], the 50% inhibitory concentration (IC50) came out at 1190 nM.
For the compound `O=C(c1noc(-c2cc(F)c(F)c(O)c2F)n1)N1CCN(c2ccccc2)CC1` [Example 81, (4-Phenylpiperazin-1-yl)(5-(2,4,5-trifluoro-3-hydroxyphenyl)-1,2,4-oxadiazol-3-yl)methanone], the IC50 was 95 nM in assay [1], more than 50000 nM in assay [2] and 410 nM in assay [3].
